Like-named read-outs stand apart in the source and are kept apart here.
What was measured:
Assay type in all cases: cell-based
MYB mRNA [1] = test: Splicing RT-qPCR assay (THP), Table 2A
HTT mRNA [2] = test: Splicing RT-qPCR assay (THP), Table 2A
MYB mRNA [3] = test: Gene panel canonical junction qPCR assay, decrease in CJ mRNA, Table 3
In short: (§1)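 IC50 is the concentration giving 50% response in decrease of the canonical junction transcript, fitted with a 4-parameter logistic equation. Transcripts were quantified by RT-qPCR in A673 or K562 cells after 24 h exposure to compounds dosed up to 10 uM in 3-fold steps.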

HTT mRNA [4] = test: as above
In short: as §1

[5] = system: SH-SY5Y (human neuroblastoma) cells; test: Cell viability, Cell Titer Glo 2.0 assay; settings: read-out: Viability SHSY5Y.3 GI50
In short: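 Steps: serial DMSO dilution of compound, 1:100 dilution into medium, addition to cells (0.1% DMSO final). Incubate 72 h at 37 °C, 5% CO2. Assay with CellTiter-Glo 2.0 reagent.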

[6] = Table 2A, THP, MYB alternative junction (AJ) mRNA, read-out: MYB AJ (AC50, increase in alternative junction mRNA)
[7] = Table 2A, THP, MYB canonical junction (CJ) mRNA, read-out: MYB CJ (IC50, decrease in canonical junction mRNA)
[8] = Table 2A, THP, HTT alternative junction (AJ) mRNA, read-out: HTT AJ (AC50, increase in alternative junction mRNA)
[9] = Table 2A, THP, HTT canonical junction (CJ) mRNA, read-out: HTT CJ (IC50, decrease in canonical junction mRNA)
[10] = decrease in CJ mRNA levels, canonical junction qPCR, gene panel
[11] = Table 2A (THP), AJ mRNA increase, read-out: MYB AJ (increase in alternative junction mRNA, AC50)
[12] = Table 2A (THP), CJ mRNA decrease, read-out: MYB CJ (decrease in canonical junction mRNA, IC50)
[13] = Table 2A (THP), AJ mRNA increase, read-out: HTT AJ (increase in alternative junction mRNA, AC50)
[14] = Table 2A (THP), CJ mRNA decrease, read-out: HTT CJ (decrease in canonical junction mRNA, IC50)
[15] = decrease in canonical junction (CJ) mRNA, gene panel qPCR, Table 3

| IC50 (MYB mRNA [1]; [7]) [nM] | IC50 (HTT mRNA [2]; [9]) [nM] | IC50 (MYB mRNA [3]; [10]) [nM] | IC50 (HTT mRNA [4]; [10]) [nM] | GI50 [5] [nM] | IC50 (MYB mRNA [1]; [12]) [nM] | IC50 (HTT mRNA [2]; [14]) [nM] | IC50 (MYB mRNA [3]; [15]) [nM] | IC50 (HTT mRNA [4]; [15]) [nM] | Structure (SMILES) | AC50 (MYB mRNA [1]; [6]) [nM] | AC50 (HTT mRNA [2]; [8]) [nM] | AC50 (MYB mRNA [1]; [11]) [nM] | AC50 (HTT mRNA [2]; [13]) [nM] |
| --- | --- | --- | --- | --- | --- | --- | --- | --- | --- | --- | --- | --- | --- |
| 100 to 1000 | 1000 to 10000 | 100 to 1000 | 1000 to 10000 | 1000 to 10000 | – | – | – | – | COc1c(NC(=O)c2cc(F)c(N3CCC(NC4CC4)CC3)c3cn(C)nc23)cn2cc(C)nc2c1F [Compound 709] | 100 to 1000 | 1000 to 10000 | – | – |
| 100 to 1000 | 1000 to 10000 | 100 to 1000 | 1000 to 10000 | 1000 to 10000 | – | – | – | – | COc1nc2c(N3CCC(NC4CC4)CC3)ccc(C(=O)Nc3cc4cn(C)nc4cc3OC)c2o1 [Compound 679, 4-[4-(cyclopropylamino)-1-piperidyl]-2-methoxy-N-(6-methoxy-2-methyl-indazol-5-yl)-1,3-benzoxazole-7-carboxamide] | < 100 | 1000 to 10000 | – | – |
| – | – | – | – | 1000 to 10000 | 100 to 1000 | > 10000 | 100 to 1000 | > 10000 | Cc1cn2cc(NC(=O)c3c(F)cc(N4CCC(NC5CC5)CC4)c4cn(C)nc34)c(F)c2c(C)n1 [Compound 453, 4-[4-(cyclopropylamino)-1-piperidyl]-6-fluoro-N-(8-fluoro-1,3-dimethyl-pyrrolo[1,2-a]pyrazin-7-yl)-2-methyl-indazole-7-carboxamide] | – | – | < 100 | > 10000 |
| 1000 to 10000 | 1000 to 10000 | 1000 to 10000 | 1000 to 10000 | 1000 to 10000 | – | – | – | – | COc1c(NC(=O)c2ccc(N3CCC(NC4CC4)CC3)c3cn(C)nc23)cc2cn(C)nc2c1CNS(C)(=O)=O [Compound 819] | 1000 to 10000 | 1000 to 10000 | – | – |
| – | – | – | – | 1000 to 10000 | 1000 to 10000 | > 10000 | 1000 to 10000 | > 10000 | CNC1CCN(c2ccc(C(=O)Nc3cn4cc(C)nc(C)c4c3F)c3nn(C)cc23)CC1 [Compound 581, N-(8-fluoro-1,3-dimethyl-pyrrolo[1,2-a]-pyrazin-7-yl)-2-methyl-4-[4-(methylamino)-1-piperidyl]indazole-7-carboxamide] | – | – | 1000 to 10000 | > 10000 |
| – | – | – | – | 100 to 1000 | 100 to 1000 | 100 to 1000 | 100 to 1000 | 100 to 1000 | COc1cc2nn(C)cc2cc1NC(=O)c1ccc(N2CCC(NC3CC3)CC2)c2c(F)n(C)nc12 [Compound 477] | – | – | 100 to 1000 | 100 to 1000 |
| – | – | – | – | 1000 to 10000 | 100 to 1000 | > 10000 | 100 to 1000 | > 10000 | CCNC1CCN(c2cc(F)c(C(=O)Nc3cc4c(C)nc(C)cn4c3)c3nn(C)cc23)CC1 [Compound 344, N-(1,3-dimethylpyrrolo[1,2-a]-pyrazin-7-yl)-4-[4-(ethylamino)-1-piperidyl]-6-fluoro-2-methyl-indazole-7-carboxamide] | – | – | 100 to 1000 | > 10000 |
| < 100 | 100 to 1000 | < 100 | 100 to 1000 | 100 to 1000 | – | – | – | – | COc1nc2nc(C)cn2cc1NC(=O)c1cnc(N2CCC(NC3CC3)CC2)c2cn(C)nc12 [Compound 608, 4-[4-(cyclopropylamino)-1-piperidyl]-N-(7-methoxy-2-methyl-imidazo[1,2-a]-pyrimidin-6-yl)-2-methyl-pyrazolo-[4,3-c]pyridine-7-carboxamide] | < 100 | < 100 | – | – |
| – | – | – | – | 100 to 1000 | > 10000 | > 10000 | > 10000 | > 10000 | Cc1c2cc(NC(=O)c3c(F)cc(N4CCC(NC5CC5)CC4)c4cn(C)nc34)cc(F)c2nn1C [Compound 403, 4-[4-(cyclopropyl-amino)-1-piperidyl]-6-fluoro-N-(7-fluoro-2,3-dimethyl-indazol-5-y1)-2-methyl-indazole-7-carboxamide] | – | – | > 10000 | > 10000 |
| – | – | – | – | > 10000 | 1000 to 10000 | > 10000 | 1000 to 10000 | > 10000 | Cc1cn2cc(NC(=O)c3ccc(N4CCC5NCC5C4)c4cn(C)nc34)nc2c(C)n1 (stereo not shown) [Compound 530] | – | – | > 10000 | > 10000 |

— US20260285853A1, “COMPOUNDS AND METHODS FOR MODULATING SPLICING” (REMIX THERAPEUTICS INC., priority 2023, published 2026)
